The target in this test is T1, Androgen Receptor (Homo sapiens, UniProt P10275).
T1 construct: endogenous in cells; host or cells: VCaP cells
T1 sequence (P10275 1-920): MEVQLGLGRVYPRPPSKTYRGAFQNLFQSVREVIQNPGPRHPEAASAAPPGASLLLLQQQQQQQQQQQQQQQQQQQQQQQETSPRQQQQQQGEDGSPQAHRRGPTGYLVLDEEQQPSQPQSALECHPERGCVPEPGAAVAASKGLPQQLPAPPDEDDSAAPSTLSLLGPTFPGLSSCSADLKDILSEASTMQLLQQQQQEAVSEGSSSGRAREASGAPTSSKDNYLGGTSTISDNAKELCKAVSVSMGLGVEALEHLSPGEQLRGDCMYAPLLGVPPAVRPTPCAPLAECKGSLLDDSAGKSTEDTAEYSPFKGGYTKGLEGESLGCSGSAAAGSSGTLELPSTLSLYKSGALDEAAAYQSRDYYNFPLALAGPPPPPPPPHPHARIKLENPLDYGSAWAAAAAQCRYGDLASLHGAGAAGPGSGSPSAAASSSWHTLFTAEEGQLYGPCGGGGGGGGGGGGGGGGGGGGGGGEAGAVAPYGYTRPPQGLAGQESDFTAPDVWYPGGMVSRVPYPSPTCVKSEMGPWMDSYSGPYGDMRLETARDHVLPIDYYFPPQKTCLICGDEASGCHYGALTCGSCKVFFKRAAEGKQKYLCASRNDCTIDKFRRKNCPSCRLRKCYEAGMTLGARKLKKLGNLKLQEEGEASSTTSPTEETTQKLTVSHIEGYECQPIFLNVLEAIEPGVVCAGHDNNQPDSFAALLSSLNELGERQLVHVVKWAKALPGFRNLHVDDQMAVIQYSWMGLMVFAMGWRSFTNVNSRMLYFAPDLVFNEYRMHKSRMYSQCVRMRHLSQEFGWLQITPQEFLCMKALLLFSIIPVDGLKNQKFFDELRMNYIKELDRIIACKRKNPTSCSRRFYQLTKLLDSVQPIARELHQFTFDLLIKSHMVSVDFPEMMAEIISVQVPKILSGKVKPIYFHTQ
The test is described as follows: Androgen Receptor ELISA assay (PathScan AR ELISA) in VCaP cells: AR degradation, Dmax and DC50. The test is classed as cell-based. The method, boiled down:
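VCaP cells in phenol red-free RPMI with 5% charcoal-stripped FBS were grown at least 3 days, then given compound as 7 half-log doses in 0.1% DMSO with 0.1 nM R1881 for 24 h. Lysates went into a sandwich AR ELISA with TMB read at 450 nm.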
For orientation: ELISA stands for enzyme-linked immunosorbent assay.

Where [1] appears, read: read-out: VCaP DC50; VCaP cells; Table 36.
Where [2] appears, read: VCaP cells; Table 36; read-out: VCaP DC50.
[3] abbreviates: VCaP, VCaP cells; Table 36; read-out: VCaP Dmax (%).

Like-named read-outs stand apart in the source and are kept apart here.

Broadly, the DC50 is the concentration at which degradation of the target reaches its halfway point. Turning to `Cc1ncsc1-c1ccc([C@H](C)NC(=O)[C@@H]2C[C@@H](O)CN2C(=O)[C@@H](NC(=O)CN2CCO[C@H](CN3CCO[C@H](COc4ccc(N5C(=S)N(c6ccc(C#N)c(C(F)(F)F)c6)C(=O)C5(C)C)cc4)C3)C2)C(C)(C)C)cc1` [Example 675, (2S,4R)-1-((S)-2-(2-((R)-2-(((S)-2-((4-(3-(4-cyano-3-(trifluoromethyl)phenyl)-5,5-dimethyl-4-oxo-2-thioxoimidazolidin-1-yl)phenoxy)methyl)mor-pholino)methyl)mor-pholino)acetamido)-3,3-dimethylbutanoyl)-4-hydroxy-N-((S)-1-(4-(4-methylthiazol-5-yl)phenyl)ethyl)pyrrolidine-2-carboxamide], the DC50 under setting [1] was > 501 nM.
Same read-out and setting: the result for `Cc1ncsc1-c1ccc([C@H](C)NC(=O)[C@@H]2C[C@@H](O)CN2C(=O)[C@@H](NC(=O)CN2CCO[C@@H](CN3CCO[C@H](COc4ccc(N5C(=O)N(c6ccc(C#N)c(C(F)(F)F)c6)C(=O)C5(C)C)cc4)C3)C2)C(C)(C)C)cc1` [Example 676, (2S,4R)-1-((S)-2-(2-((S)-2-(((S)-2-((4-(3-(4-cyano-3-(trifluoromethyl)phenyl)-5,5-dimethyl-4-oxo-2-thioxoimidazolidin-1-yl)phenoxy)methyl)mor-pholino)methyl)mor-phpolino)acetamido)-3,3-dimethylbutanoyl)-4-hydroxy-N-((S)-1-(4-(4-methylthiazol-5-yl)phenyl)ethyl)pyrrolidine-2-carboxamide] reads > 501 nM.
Still for that read-out and setting: the result for `Cc1ncsc1-c1ccc([C@H](C)NC(=O)[C@@H]2C[C@@H](O)CN2C(=O)[C@@H](NC(=O)OCc2ccccc2)[C@@H](C)OCCCCCCOc2ccc(N3C(=O)N(c4ccc(C#N)c(C(F)(F)F)c4)C(=O)C3(C)C)cc2)cc1` [Example 677, benzyl ((2S,3R)-3-((6-(4-(3-(4-cyano-3-(trifluoromethyl)phenyl)-5,5-dimethyl-4-oxo-2-thioxoimidazolidin-1-yl)phenoxy)hexyl)oxy)-1-((2S,4R)-4-hydroxy-2-(((S)-1-(4-(4-methylthiazol-5-yl)phenyl)ethyl)carbam-oyl)pyrrolidin-1-y)-1-oxobutan-2-yl)carbamate] reads > 501 nM.
As to `Cc1ncsc1-c1ccc([C@H](C)NC(=O)[C@@H]2C[C@@H](O)CN2C(=O)[C@@H](NC(=O)COCCN(C)CCCc2ccc(C(=O)N[C@H]3C(C)(C)[C@H](Oc4ccc(C#N)c(Cl)c4)C3(C)C)nc2)C(C)(C)C)cc1` [Example 678, N-((1r,3r)-3-(3-chloro-4-cyanophenoxy)-2,2,4,4-tetramethylcyclobutyl)-5-(3-((2-(2-(((S)-1-((2S,4R)-4-hydroxy-2-(((S)-1-(4-(4-methylthiazol-5-yl)phenyl)ethyl)carbam-oyl)pyrrolidin-1-yl)-3,3-dimethyl-1-oxobutan-2-yl)amino)-2-oxoethoxy)ethyl)(meth-yl)amino)propyl)picolin-amide], the DC50 under setting [2] was > 501 nM.
Same read-out and setting: the result for `Cc1ncsc1-c1ccc([C@H](C)NC(=O)[C@@H]2C[C@@H](O)CN2C(=O)[C@@H](NC(=O)C(=O)N2CCN(CCOc3ccc(C(=O)N[C@H]4C(C)(C)[C@H](Oc5ccc(C#N)c(C(F)(F)F)c5)C4(C)C)cc3)CC2)C(C)(C)C)cc1` [Example 679, (2S,4R)-1-((S)-2-(2-(4-(2-(4-(((1r,3r)-3-(4-cyano-3-(trifluoromethyl)phenoxy)-2,2,4,4-tetramethylcyclobutyl)carbamoyl)phenoxy)eth-yl)piperazin-1-yl)-2-oxoacetamido)-3,3-dimethylbutanoyl)-4-hydroxy-N-((S)-1-(4-(4-methylthiazol-5-yl)phenyl)ethyl)pyrrolidine-2-carboxamide] reads > 501 nM.
The Dmax is the greatest extent of degradation seen. `Cc1cc(O[C@H]2C(C)(C)[C@H](NC(=O)c3ccc(N4CCN(CCOCC(=O)N[C@H](C(=O)N5C[C@H](O)C[C@H]5C(=O)N[C@@H](C)c5ccc(-c6scnc6C)cc5)C(C)(C)C)CC4)nc3)C2(C)C)ccc1C#N` [Example 680, N-((1r,3r)-3-(4-cyano-3-methylphenoxy)-2,2,4,4-tetramethylcyclobutyl)-6-(4-(2-(2-(((S)-1-((2S,4R)-4-hydroxy-2-(((S)-1-(4-(4-methylthiazol-5-yl)phenyl)ethyl)carbam-oyl)pyrrolidin-1-yl)-3,3-dimethyl-1-oxobutan-2-yl)amino)-2-oxoethoxy)ethyl)pipera-zin-1-yl)nicotinamide]: under setting [2], the DC50 is < 50 nM. Where the note is “VCaP, read-out: VCaP Dmax (%), VCaP cells; Table 36”, the Dmax was > 71%.
With `Cc1nc(O[C@H]2C(C)(C)[C@H](NC(=O)c3ccc(N4CCN(CCOCC(=O)N[C@H](C(=O)N5C[C@H](O)C[C@H]5C(=O)N[C@@H](C)c5ccc(-c6scnc6C)cc5)C(C)(C)C)CC4)nc3)C2(C)C)ccc1C#N` [Example 682, N-((1r,3r)-3-((5-cyano-6-methylpyridin-2-yl)oxy)-2,2,4,4-tetramethylcyclobutyl)-6-(4-(2-(2-(((S)-1-((2S,4R)-4-hydroxy-2-(((S)-1-(4-(4-methylthiazol-5-yl)phenyl)ethyl)carbam-oyl)pyrrolidin-1-yl)-3,3-dimethyl-1-oxobutan-2-yl)amino)-2-oxoethoxy)ethyl)pipera-zin-1-yl)nicotinamdie], the DC50 under setting [2] is < 50 nM. For the same compound, under setting [3], the Dmax was > 71%.
With `Cc1ncsc1-c1ccc([C@H](C)NC(=O)[C@@H]2C[C@@H](O)CN2C(=O)[C@H](C(C)C)N(C)C(=O)CN2CCN(CCOc3ccc(C(=O)N[C@H]4C(C)(C)[C@H](Oc5ccc(C#N)c(Cl)c5)C4(C)C)cc3)CC2)cc1` [Example 683, (2S,4R)-1-(N-(2-(4-(2-(4-(((1r,3r)-3-(3-chloro-4 cyanophenoxy)-2,2,4,4-tetramethylcyclobutyl)carbamoyl)phenoxy)eth-yl)piperazin-1-yl)acetayl)-N-methyl-L-valyl)-4-hydroxy-N-((S)-1-(4-(4-methylthiazol-5-yl)phenyl)ethyl)pyrrolidine-2-carboxamide], the DC50 under setting [2] was > 501 nM. The Dmax under setting [3] is 26 to 50%.
On to `Cc1ncsc1-c1ccc([C@H](C)NC(=O)[C@@H]2C[C@@H](O)CN2C(=O)[C@@H](NC(=O)COCCN2CCN(c3ccc(C(=O)N[C@H]4C(C)(C)[C@H](Oc5ccc(C#N)c(C(F)(F)F)c5)C4(C)C)nn3)CC2)C(C)(C)C)cc1` [Example 684, N-((1r,3r)-3-(4-cyano-3-(trifluoromethyl)phenoxy)-2,2,4,4-tetramethylcyclobutyl)-6-(4-(2-(2-(((S)-1-((2S,4R)-4-hydroxy-2-(((S)-1-(4-(4-methylthiazol-5-yl)phenyl)ethyl)carbam-oyl)pyrrolidin-1-yl)-3,3-dimethyl-1-oxobutan-2-yl)amino)-2-oxoethoxy)ethyl)pipera-zin-1-yl)pyridazine-3-carboxamide], for which the DC50 under setting [2] is < 50 nM. For the same compound, under setting [3], the Dmax lay within 51 to 70%.
As for `Cc1ncsc1-c1ccc([C@H](C)NC(=O)[C@@H]2C[C@@H](O)CN2C(=O)[C@@H](NC(=O)COCCCCCC2(c3ccc(C(=O)N[C@H]4C(C)(C)[C@H](Oc5ccc(C#N)c(Cl)c5)C4(C)C)cc3)COC2)C(C)(C)C)cc1` [Example 685, (2S,4R)-1-((S)-2-(2-((5-(3-(4-(((1r,3r)-3-(3-chloro-4-cyanophenoxy)-2,2,4,4-tetramethylcyclobutyl)carbamoyl)phenyl)oxetan-3-yl)pentyl)oxy)acetamido)-3,3-dimethylbutanoyl)-4-hydroxy-N-((S)-1-(4-(4-methylthiazol-5-yl)phenyl)ethyl)pyrrolidine-2-carboxamide], under setting [2], the DC50 was < 50 nM. The Dmax under setting [3] is > 71%.
As for `Cc1ncsc1-c1ccc([C@H](C)NC(=O)[C@@H]2C[C@@H](O)CN2C(=O)[C@@H](NC(=O)CN2CCN(CC3(CNc4ccc(C(=O)N[C@H]5C(C)(C)[C@H](Oc6ccc(C#N)c(C(F)(F)F)c6)C5(C)C)cc4)COC3)CC2)C(C)(C)C)cc1` [Example 686, (2S,4R)-1-((S)-2-(2-(4-((3-(((4-(((1r,3r)-3-(4-cyano-3-(trifluoromethyl)phenoxy)-2,2,4,4-tetramethylcyclobutyl)carbamoyl)phenyl)amino)methyl)oxetan-3-yl)methyl)piperazin-1-yl)acetamido)-3,3-dimethylbutanoyl)-4-hydroxy-N-((S)-1-(4-(4-methylthiazol-5-yl)phenyl)ethyl)pyrrolidine-2-carboxamide], the Dmax (VCaP, read-out: VCaP Dmax (%)) lay in the range of 26 to 50%. Further, the DC50 under setting [1] is < 50 nM.

For the origin of these results see patent publication US11427548B2 (Arvinas Operations, Inc., priority 2015, dated 2022).
